Results: patent US20200131144A1, “AMINE OR (THIO)AMIDE CONTAINING LXR MODULATORS” (Phenex-FXR GmbH, priority 2017, published 2020)

Key:
[1] = biological target: T1, GST-LXRβ ligand-binding domain (Homo sapiens, UniProt P55055, INS174Q); assay: TR-FRETβ activity assay (NCoA3 coactivator peptide recruitment); format: biochemical; conditions: 1 μM 24(S)-25-epoxycholesterol as prestimulating agonist; inverse agonist unless *
T1 construct: amino acids 156-461; NP009052; made in house; host or cells: E. coli
T1 sequence (P55055 with tags, fused parts or gaps INS174Q limits assumed): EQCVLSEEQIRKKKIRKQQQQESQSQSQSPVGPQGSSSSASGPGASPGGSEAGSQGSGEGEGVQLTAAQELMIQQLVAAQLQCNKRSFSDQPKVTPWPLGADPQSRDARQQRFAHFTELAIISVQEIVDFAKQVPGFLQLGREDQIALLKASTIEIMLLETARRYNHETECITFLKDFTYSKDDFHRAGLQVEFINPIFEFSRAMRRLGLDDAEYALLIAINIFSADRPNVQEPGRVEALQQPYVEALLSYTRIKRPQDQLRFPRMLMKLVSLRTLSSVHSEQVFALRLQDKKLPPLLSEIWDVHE
Procedure: The tested compounds were usually dissolved, tested and stored as 20 mM stock solutions in DMSO. […] Sulfonyl acetic acid derivatives are shelf stable as solid at rt for long time as reported by Griesbrecht et al. (Synlett 2010:374) or Faucher et al. (J. Med. Chem. 2004; 47:18). TR-FRETβ Activity Assay Recombinant GST-LXRβ ligand-binding domain (LBD; amino acids 156-461; NP009052; SEQ ID NO:4) was expressed in E. coli and purified via gluthatione-sepharose affinity chromatography. N-terminally biotinylated NCoA3 coactivator peptide (SEQ ID NO:7) was chemically synthesized (Eurogentec). […] Finally, a detection mix was added containing anti GST-Tb cryptate (CisBio; 610SAXLB) and Streptavidin-XL665 (CisBio; 610SAXLB) as fluorescent donor and acceptor, respectively, as well as the coactivator peptide and LXRβ-LBD protein (SEQ ID NO:4). The reaction was mixed thoroughly, equilibrated for 1 h at 4° C. and vicinity of LXRβ and coactivator peptide was detected by measurement of fluorescence in a VictorX4 multiplate reader (PerkinElmer Life Science) using 340 nm as excitation and 615 and 665 nm as emission wavelengths. Assays were performed in triplicates. Final Assay Concentrations of Components: 240 mM KCl, 1 μg/μL BSA, 0.002% Triton-X-100, 125 pg/μL anti GST-Tb cryptate, 2.5 ng/μL Streptavidin-XL665, coactivator peptide (400 nM), LXRP protein ([…], i.e. 76 nM).

LXRα full length (FL) = biological target: T2, LXRα full length (FL) (Homo sapiens, UniProt Q13133); assay: LXR Gal4 reporter transient transfection assay, mammalian two-hybrid, FL-M2H Gal4α; format: cell-based; conditions: HEK293 cells; inverse agonist unless *
T2 construct: the full length (FL) proteins of LXRα (amino acids 1-447); NP005684; expressed in transfected cells; host or cells: HEK293
T2 sequence (Q13133 1-447): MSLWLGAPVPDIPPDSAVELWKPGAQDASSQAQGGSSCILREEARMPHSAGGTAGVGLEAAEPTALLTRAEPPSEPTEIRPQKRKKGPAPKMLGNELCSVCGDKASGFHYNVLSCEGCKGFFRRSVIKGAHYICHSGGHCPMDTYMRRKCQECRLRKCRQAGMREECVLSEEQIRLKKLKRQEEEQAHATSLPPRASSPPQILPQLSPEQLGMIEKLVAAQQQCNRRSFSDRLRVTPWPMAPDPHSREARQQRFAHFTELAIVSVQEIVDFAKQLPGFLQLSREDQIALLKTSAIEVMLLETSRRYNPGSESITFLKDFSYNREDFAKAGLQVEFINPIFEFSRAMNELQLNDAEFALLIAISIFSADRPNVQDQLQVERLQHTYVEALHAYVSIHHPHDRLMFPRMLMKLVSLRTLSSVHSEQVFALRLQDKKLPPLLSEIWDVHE
Procedure: (§1) The tested compounds were usually dissolved, tested and stored as 20 mM stock solutions in DMSO. Since sulfonyl acetic acid derivatives tend to decarboxylate under these conditions, these stock solutions were prepared, tested and stored as 20 mM DMSO stock solutions containing 100 mM trifluoroacetic acid (5 equivalents). Sulfonyl acetic acid derivatives are shelf stable as solid at rt for long time as reported by Griesbrecht et al. (Synlett 2010:374) or Faucher et al. (J. Med. Chem. 2004; 47:18).
(§2) LXR Gal4 Reporter Transient Transfection Assays
(§3) LXRα and LXRβ activity status was determined via detection of interaction with coactivator and corepressor proteins in mammalian two-hybrid experiments (M2H). For this, via transient transfection the full length (FL) proteins of LXRα (amino acids 1-447; NP005684; SEQ ID NO:1) or LXRβ-(amino acids 1-461; NP009052; SEQ ID NO:2) or the ligand-binding domains (LBD) of LXRα (amino acids 155-447 SEQ ID NO:3) or LXR (amino acids 156-461; SEQ ID NO:4) were expressed from pCMV-AD (Stratagene) as fusions to the transcriptional activation domain of NFkB. As cofactors, domains of either the steroid receptor coactivator 1 (SRC1; amino acids 552-887; SEQ ID NO:5) or of the corepressor NCoR (amino acids 1906-2312; NP006302; SEQ ID NO:6) were expressed as fusions to the DNA binding domain of the yeast transcription factor GAL4 (from pCMV-BD; Stratagene). Interaction was monitored via activation of a coexpressed Firefly Luciferase Reporter gene under control of a promoter containing repetitive GAL4 response elements (vector pFRLuc; Stratagene). Transfection efficiency was controlled via cotransfection of constitutively active pRL-CMV Renilla reniformis luciferase reporter (Promega). HEK293 cells were grown in minimum essential medium (MEM) with 2 mM L-glutamine and Earle's balanced salt solution supplemented with 8.3% fetal bovine serum, 0.1 mM non-essential amino acids, 1 mM sodium pyruvate, at 37° C. in 5% CO2. 3.5×10^4 cells/well were plated in 96-well cell culture plates in growth medium supplemented with 8.3% fetal bovine serum for 16-20 h to—90% confluency. For transfection, medium was taken off and LXR and cofactor expressing plasmids as well as the reporter plasmids are added in 30 μL OPTIMEM/well including polyethylene-imine (PEI) as vehicle. Typical amounts of plasmids transfected/well: pCMV-AD-LXR (5 ng), pCMV-BD-cofactor (5 ng), pFR-Luc (100 ng), pRL-CMV (0.5 ng). Compound stocks were prepared in DMSO, prediluted in MEM to a total volume of 120 μL, and added 4 h after addition of the transfection mixture (final vehicle concentration not exceeding 0.2%). Cells were incubated for additional 16 h, lysed for 10 min in 1×Passive Lysis Buffer (Promega) and Firefly and Renilla luciferase activities were measured sequentially in the same cell extract using buffers containing D-luciferine and coelenterazine, respectively. Measurements of luminescence were done in a BMG-luminometer.

LXRβ full length (FL) = biological target: T3, LXRβ full length (FL) (Homo sapiens, UniProt P55055, INS174Q); assay: LXR Gal4 reporter transient transfection assay, mammalian two-hybrid, FL-M2H Gal4β; format: cell-based; conditions: HEK293 cells; inverse agonist unless *
T3 construct: the full length (FL) proteins of LXRα (amino acids 1-447); NP005684; NP009052; expressed in transfected cells; host or cells: HEK293
T3 sequence (P55055 with tags, fused parts or gaps INS174Q): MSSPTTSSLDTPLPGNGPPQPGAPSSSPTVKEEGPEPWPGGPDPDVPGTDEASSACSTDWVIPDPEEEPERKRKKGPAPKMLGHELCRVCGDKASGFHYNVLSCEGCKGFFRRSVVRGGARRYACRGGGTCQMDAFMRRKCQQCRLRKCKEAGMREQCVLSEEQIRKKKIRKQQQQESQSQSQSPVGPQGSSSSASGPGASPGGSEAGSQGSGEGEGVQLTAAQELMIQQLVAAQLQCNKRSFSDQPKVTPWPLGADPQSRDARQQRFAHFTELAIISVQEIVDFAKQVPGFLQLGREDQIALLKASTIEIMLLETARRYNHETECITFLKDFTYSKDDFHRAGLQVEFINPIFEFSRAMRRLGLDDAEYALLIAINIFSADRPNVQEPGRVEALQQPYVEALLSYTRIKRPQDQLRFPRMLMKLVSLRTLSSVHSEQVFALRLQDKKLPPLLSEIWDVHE
Procedure: as §1, §2, §3

EC50 [1] | EC50 (LXRα full length (FL)) | EC50 (LXRβ full length (FL)) | Structure (SMILES)
1000 to 10000 nM | 100 to 1000 nM | < 100 nM | Cc1cc(C(=O)N(Cc2ccc(-c3cccc(C(C)(C)C(=O)O)c3)cc2)Cc2ccc(C(F)(F)F)o2)c2ncccc2n1 [27/111]
100 to 1000 nM | 100 to 1000 nM | < 100 nM | Cc1ccc2ccccc2c1C(=O)N(Cc1ccc(-c2cncc(C(C)(C)C(=O)O)c2)cc1)Cc1ccc(C(F)(F)F)o1 [27/37]
100 to 1000 nM | < 100 nM | < 100 nM | Cc1ccc2ccccc2c1C(=O)N(Cc1ccc(-c2cccc(C(C)(C)c3noc(=O)[nH]3)c2)cc1)Cc1ccc(C(F)(F)F)o1 [Example 29, 2-Methyl-N-((3′-(2-(5-oxo-4,5-dihydro-1,2,4-oxadiazol-3-yl)propan-2-yl)-[1,1′-biphenyl]-4-yl)methyl)-N-((5-(trifluoromethyl)furan-2-yl)methy)-1-naphthamide]
1000 to 10000 nM | 100 to 1000 nM | < 100 nM | Cc1ccc2ccccc2c1C(=O)N(Cc1ccc(C(F)(F)F)o1)Cc1ccc(-c2cccc(C(C)(C)C(=O)O)c2)nc1N [27/91]
1000 to 10000 nM | < 100 nM | < 100 nM | CCOC(=O)OC(OC(=O)C(C)(C)c1cccc(-c2ccc(CN(Cc3ccc(C(F)(F)F)o3)C(=O)c3c(C)ccc4ccccc34)cc2)c1)C(C)C (stereo not drawn) [Example 31, 1-((Ethoxycarbonyl)oxy)-2-methylpropyl 2-methyl-2-(4′-((2-methyl-N-((5-(trifluoromethyl)furan-2-yl)methyl)-1-naphthamido)methyl)-[1,1′-biphenyl]-3-yl)propanoate]
1000 to 10000 nM | 100 to 1000 nM | 100 to 1000 nM | Cc1nc2cccnn2c1C(=O)N(Cc1ccc(-c2cccc(C(C)(C)C(=O)O)c2)cc1)Cc1ccc(C(F)(F)F)o1 [27/116]
< 100 nM | 100 to 1000 nM | < 100 nM | Cc1cc(C)c(CN(Cc2ccc(-c3cccc(S(=O)(=O)CC(=O)N(C)O)c3)cc2)Cc2ccc(C(F)(F)F)o2)c(C)c1 [5/2]
1000 to 10000 nM | 100 to 1000 nM | 100 to 1000 nM | COc1cc(-c2cncc(S(=O)(=O)CC(=O)O)c2)ccc1CN(Cc1ccc(C(F)(F)F)o1)C(=O)c1c(C)ccc2ccccc12 [27/60]

Continued, compound first:

Structure (SMILES) | EC50 [1] | EC50 (LXRα full length (FL)) | EC50 (LXRβ full length (FL))
Cc1ccc2ccccc2c1C(=O)N(Cc1ccc(-c2cccc(S(=O)(=O)CC(=O)NS(C)(=O)=O)c2)cc1)Cc1ccc(C(F)(F)F)o1 [5/4] | 100 to 1000 nM | 1000 to 10000 nM | 1000 to 10000 nM
CC1=C(C(=O)N(Cc2ccc(-c3cccc(C(C)(C)C(=O)O)c3)cc2)Cc2ccc(C(F)(F)F)o2)c2ccccc2CC1 [27/95] | < 100 nM | < 100 nM | < 100 nM
CCc1nc2cnccc2c(C(=O)N(Cc2ccc(-c3cccc(C(C)(C)C(=O)O)c3)cc2)Cc2ccc(C(F)(F)F)o2)c1C [27/88] | 100 to 1000 nM | < 100 nM | < 100 nM
Cc1cc(C)c(CN(Cc2ccc(-c3cccc(S(=O)(=O)CC(=O)O)c3)cc2)Cc2ccc(C(=O)N(C)C)o2)c(C)c1 [7/13] | 1000 to 10000 nM | 1000 to 10000 nM | 1000 to 10000 nM
Cc1cnc2ccccc2c1C(=O)N(Cc1ccc(-c2cccc(C(C)(C)C(=O)O)c2)cc1)Cc1ccc(C(F)(F)F)o1 [27/103] | < 100 nM | < 100 nM | < 100 nM
Cc1nc2cnccc2c(C(=O)N(Cc2ccc(-c3cccc(C(C)(C)C(=O)O)c3)cc2)Cc2ccc(C(F)(F)F)o2)c1C [27/135] | 100 to 1000 nM | < 100 nM | < 100 nM
Cc1ccc(CN(Cc2ccc(-c3cccc(C(C)(C)C(=O)O)c3)cc2)C(=O)c2c(C)c(C)nc3cccnc23)o1 [27/132] | 1000 to 10000 nM | 100 to 1000 nM | < 100 nM
Cc1ccc2ccccc2c1C(=O)N(Cc1ccc(C(F)(F)F)o1)Cc1ccc(-c2cccc(S(=O)(=O)CC(=O)O)c2)cc1Cl [27/59] | 100 to 1000 nM | 100 to 1000 nM | 100 to 1000 nM
COc1nc(-c2cccc(C(C)(C)C(=O)O)c2)ccc1CN(Cc1ccc(C(F)(F)F)o1)C(=O)c1c(C)ccc2ccccc12 [27/77] | 1000 to 10000 nM | < 100 nM | < 100 nM
Cc1nc2cccnc2c(C(=O)N(Cc2ccc(-c3cccc(C(C)(C)C(=O)O)c3)cc2)Cc2cncc(C(F)(F)F)c2)c1C [27/131] | 100 to 1000 nM | 100 to 1000 nM | 100 to 1000 nM
COCc1c(C)cc(C)c(C(=O)N(Cc2ccc(-c3cccc(C(C)(C)C(=O)O)c3)cc2)Cc2ccc(C(F)(F)F)o2)c1C [27/50] | 100 to 1000 nM | < 100 nM | < 100 nM
COc1cc(-c2cccc(S(=O)(=O)CC(=O)O)c2)ccc1CN(Cc1ccc(C(F)(F)F)o1)C(=O)c1c(C)ccc2ccccc12 [27/61] | 1000 to 10000 nM | 100 to 1000 nM | 100 to 1000 nM
